Measured values reported in ChEMBL document CHEMBL1201862, “PubChem BioAssay data set” (2004).
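Five concentrations, 48 hours, 96-well plates. At the GI50, growth is halved.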 The source made the active and inactive calls. No stated cut-off is given here; in the data, active = GI50 up to about 1.1 µM and inactive = higher.

Key:
Experiment in all cases: growth of human tumour cells (NCI), 48 h
[1] = test system: HOP-92
[2] = test system: Malme-3M
[3] = test system: SW-620
[4] = test system: LOX IMVI
[5] = test system: KM12
[6] = test system: RPMI-8226
[7] = test system: CAKI-1
[8] = test system: SN12C
[9] = test system: TK-10
[10] = test system: UACC-62
[11] = test system: HCC 2998
[12] = test system: HOP-18
[13] = test system: NCI-H226
[14] = test system: NCI-H23
[15] = test system: OVCAR-4
[16] = test system: 786-0
[17] = test system: M14
[18] = test system: COLO 205
[19] = test system: OVCAR-3
[20] = test system: OVCAR-8
[21] = test system: SNB-19
[22] = test system: OVCAR-5
[23] = test system: A549
[24] = test system: SK-MEL-28
[25] = test system: SK-MEL-2
[26] = test system: RXF 393
[27] = test system: HCT-116
[28] = test system: SNB-78
[29] = test system: NCI-H460
[30] = test system: SR
[31] = test system: K562
[32] = test system: ACHN
[33] = test system: KM-20L2
[34] = test system: DLD-1
[35] = test system: HT-29
[36] = test system: XF498
[37] = test system: HCT-15
[38] = test system: CCRF-CEM
[39] = test system: A498
[40] = test system: U-251
[41] = test system: SF-295
[42] = test system: MOLT-4
[43] = test system: SF-268
[44] = test system: UACC-257
[45] = test system: SK-OV-3
[46] = test system: M19-MEL
[47] = test system: UO-31
[48] = test system: SK-MEL-5
[49] = test system: IGROV-1
[50] = test system: NCI-H522
[51] = test system: DMS-273
[52] = test system: EKVX
[53] = test system: HOP-62
[54] = test system: LXFL 529
[55] = test system: SNB-75
[56] = test system: SF-539
[57] = test system: HL-60
[58] = test system: DMS-114

Measured: GI50

CC(=O)Nc1ccc(OCC(O)CO)cc1 (centres undefined)
inactive: [1] > 100 µM | [2] > 100 µM | [3] 8.3 µM | [4] 25.5 µM | [5] > 100 µM | [6] 21.2 µM | [7] > 100 µM | [8] > 100 µM | [9] > 100 µM | [10] > 100 µM | [11] > 100 µM | [12] > 100 µM | [13] > 100 µM | [14] > 100 µM | [15] > 100 µM | [16] 25.1 µM | [17] > 100 µM | [18] > 100 µM | [19] > 100 µM | [20] > 100 µM | [21] > 100 µM | [22] > 100 µM | [23] > 100 µM | [24] > 100 µM | [25] > 100 µM | [26] > 100 µM | [27] > 100 µM | [28] > 100 µM | [29] > 100 µM | [30] > 100 µM | [31] 16.8 µM | [32] > 100 µM | [33] > 100 µM | [34] 23.2 µM | [35] > 100 µM | [36] > 100 µM | [38] 48.2 µM | [39] > 100 µM | [40] 56.5 µM | [41] > 100 µM | [42] > 100 µM | [43] > 100 µM | [44] > 100 µM | [45] > 100 µM | [46] > 100 µM | [47] > 100 µM | [48] > 100 µM | [49] > 100 µM | [50] > 100 µM | [51] > 100 µM | [52] > 100 µM | [53] > 100 µM | [54] 52.8 µM | [55] > 100 µM | [56] > 100 µM
29.5 µM: [37]

C=Cc1cncc(C#N)c1CCc1c(C#N)cncc1C=C
inactive: [1] > 10 µM | [2] > 10 µM | [3] > 10 µM | [4] > 100 µM | [5] > 10 µM | [6] > 10 µM | [7] 63.2 µM | [8] > 10 µM | [9] > 10 µM | [10] > 10 µM | [11] > 10 µM | [12] > 10 µM | [13] > 10 µM | [14] > 10 µM | [15] > 10 µM | [16] > 10 µM | [17] > 10 µM | [18] > 10 µM | [19] > 10 µM | [20] > 10 µM | [21] > 10 µM | [22] > 10 µM | [23] > 10 µM | [24] > 10 µM | [25] > 10 µM | [26] 56.5 µM | [27] > 10 µM | [28] > 10 µM | [57] > 10 µM | [29] > 10 µM | [30] > 10 µM | [31] > 10 µM | [32] > 10 µM | [33] > 10 µM | [34] > 10 µM | [35] > 10 µM | [36] > 10 µM | [38] > 10 µM | [39] > 10 µM | [40] > 10 µM | [58] > 10 µM | [41] > 10 µM | [42] > 10 µM | [43] > 10 µM | [44] > 10 µM | [45] > 10 µM | [46] > 10 µM | [47] > 10 µM | [48] > 10 µM | [49] > 10 µM | [50] > 10 µM | [51] > 10 µM | [52] 49 µM | [53] > 10 µM | [54] > 10 µM | [55] > 10 µM | [56] > 10 µM
> 10 µM: [37]
